# Biological target: CDK2 (human) (UniProt P24941)
# Assay: Cell-Based Assay
Compound,IC50 (mda-mb-435),IC50 (rko)
COc1cc[nH]c1/C=C1\C(=O)Nc2ccc([N+](=O)[O-])c(-n3ccnc3)c21,> 30 µM,–
COc1cc[nH]c1/C=C1\C(=O)Nc2ccc([N+](=O)[O-])c(NC3CCC(O)C3)c21 (stereo unspecified),1 µM,0.339 µM
COc1cc[nH]c1/C=C1\C(=O)Nc2ccc([N+](=O)[O-])c(NC3CCC(N)C3)c21 (stereo unspecified),0.061 µM,< 0.015 µM
COc1cc[nH]c1/C=C1\C(=O)Nc2ccc(F)cc21,> 30 µM,–

# Other lines, results leading:
IC50 (mda-mb-435),IC50 (rko),Compound
< 0.01 µM,< 0.01 µM,COc1cc[nH]c1/C=C1\C(=O)Nc2ccc([N+](=O)[O-])c(N3CCC(N)CC3)c21
< 0.01 µM,< 0.01 µM,COc1cc[nH]c1/C=C1\C(=O)Nc2ccc([N+](=O)[O-])c(N3CC[C@@H](N)C3)c21
–,< 0.01 µM,COc1cc[nH]c1/C=C1\C(=O)Nc2ccc([N+](=O)[O-])c(N3CCC(O)CC3)c21
